Results: patent US20250188092A1, “RIFAMYCIN ANALOGS” (THE REGENTS OF THE UNIVERSITY OF MICHIGAN, priority 2021, published 2025)
≈ marks a conversion by molar mass, not a printed value. Like-named read-outs stand apart in the source and are kept apart here.

Tests used:
[1] = system: M. tuberculosis transformed with luxABCDE; assay: microbe, parasite or virus in culture; format: cell-based, Mycobacterium tuberculosis; details: for MBC / MIC90: Mycobacterium tuberculosis, 168 h
[2] = system: non-replicating cultures of M. tuberculosis H37Rv transformed with lux ABCDE; assay: microbe, parasite or virus in culture; format: cell-based, Mycobacterium tuberculosis; details: for MIC90 / MIC: Mycobacterium tuberculosis, H37RV, ≥90% reduction in luminescence, read-out: MIC90 LORA; for MIC90 LORA/MABA: ratio of LORA MIC90 to MABA MIC90
[3] = […], ≥99% reduction in luminescence, read-out: MBC99 Day 7 (Lux Assay) MBC
[4] = day 7 of time-kill study, read-out: MBC99

Row | Structure (SMILES) | MBC99 Day 7 (Lux Assay) MBC Rel to RMP [1] | MBC [1, 3] [µM] | MIC90 LORA Rel to RMP [2] | MIC90 [2] [µM] | MIC90 LORA/MABA [2] | MIC90 ([1]; day 7 of time-kill study) [µM] | MBC [1, 4] [µM] | more potent than RMP in terms of day 7 MBC ([1]; day 7) | MIC [2] [µM] | MIC90 LORA Rel to RMP ([2]; LORA MIC90 relative to rifampin (RMP = 1))
1 | CO[C@H]1/C=C/O[C@@]2(C)Oc3c(C)c(O)c4c(=O)c(c5oc6cccc(OCc7cccc(CN8CCN(C(=O)Cc9ccccc9)CC8)c7)c6nc-5c4c3C2=O)NC(=O)/C(C)=C\C=C\[C@H](C)[C@H](O)[C@@H](C)[C@@H](O)[C@@H](C)[C@H](OC(C)=O)[C@@H]1C [Compound 11g, (7S,9E,11S,12R,13S,14R,15R,16R,17S,18S,19E,21Z)-2,15,17-Trihydroxy-11-methoxy-3,7,12,14,16,18,22-heptamethyl-6,23,37-trioxo-32-[(3-{[4-(2-phenylacetyl)-piperazin-1-yl]methyl}phenyl)methoxy]-8,27,38-trioxa-24,34-diazahexacyclo[23.11.1.1^4,7.0^5,36.0^26,35.0^28,33]octatriaconta-1(36)2,4,9,19,21,25,28,30,32,34-undecaen-13-yl acetate] | 0.06 | 0.044 | 1.1 | 0.131 | 12 |  |  |  |  | 
2 | CO[C@H]1/C=C/O[C@@]2(C)Oc3c(C)c(O)c4c(=O)c(c5oc6cc(N7CCN(CC(C)C)CC7)cc(OCc7ccc(CN8CCOCC8)cc7)c6nc-5c4c3C2=O)NC(=O)/C(C)=C\C=C\[C@H](C)[C@H](O)[C@@H](C)[C@@H](O)[C@@H](C)[C@H](OC(C)=O)[C@@H]1C [Compound 17e, (7S,9E,11S,12R,13S,14R,15R,16R,17S,18S,19E,21Z)-2,15,17-Trihydroxy-11-methoxy-3,7,12,14,16,18,22-heptamethyl-30-[4-(2-methylpropyl)piperazin-1-yl]-32-({4-[(morpholin-4-yl)methyl]phenyl}methoxy)-6,23,37-trioxo-8,27,38-trioxa-24,34-diazahexacyclo[23.11.1.1^4,7.0^5,36.0^26,35.0^28,33]octatriaconta-1(36)2,4,9,19,21,25,28,30,32,34-undecaen-13-yl acetate] | 0.20 | 0.093 | 0.11 |  | 1.9 | 0.009 | 0.093 | approximately 10 fold | 0.0094 | 
3 | CO[C@H]1/C=C/O[C@@]2(C)Oc3c(C)c(O)c4c(=O)c(c5oc6cc(N7CCN(C(=O)c8ccncc8)CC7)cc(OCc7ccc(CN8CCOCC8)cc7)c6nc-5c4c3C2=O)NC(=O)/C(C)=C\C=C\[C@H](C)[C@H](O)[C@@H](C)[C@@H](O)[C@@H](C)[C@H](OC(C)=O)[C@@H]1C [Compound 17n, 7S,9E,11S,12R,13S,14R,15R,16R,17S,18S,19E,21Z)-2,15,17-trihydroxy-11-methoxy-3,7,12,14,16,18,22-heptamethyl-32-{[4-(morpholin-4-ylmethyl)phenyl]methoxy}-6,23,37-trioxo-30-{4-[(pyridin-4-yl)carbonyl]piperazin-1-yl}-8,27,38-trioxa-24,34-diazahexacyclo[23.11.1.1^4,7.0^5,36.0^26,35.0^28,33]octatriaconta-1,3,5(36)9,19,21,25,28,30,32,34-undecaen-13-yl acetate] | 0.70 | 0.315 | 4.7 | 0.235 | 3.2 |  |  |  |  | 
4 | CO[C@H]1/C=C/O[C@@]2(C)Oc3c(C)c(O)c4c(=O)c(c5oc6cc(N7CCN(CCCCCCO[C@@H]8COc9nc([N+](=O)[O-])cn9C8)CC7)cc(C)c6nc-5c4c3C2=O)NC(=O)/C(C)=C\C=C\[C@H](C)[C@H](O)[C@@H](C)[C@@H](O)[C@@H](C)[C@H](OC(C)=O)[C@@H]1C [Compound 29e, (7S,9E,11S,12R,13S,14R,15R,16R,17S,18S,19E,21Z)-2,15,17-Trihydroxy-11-methoxy-3,7,12,14,16,18,22,32-octamethyl-30-[4-(6-{[(6S)-2-nitro-5H,6H,7H-imidazo[2,1-b][1,3]oxazin-6-yl]oxy}hexyl)piperazin-1-yl]-6,23,37-trioxo-8,27,38-trioxa-24,34-diazahexacyclo[23.11.1.1^4,7.0^5,36.0^26,35.0^28,33]octatriaconta-1(36)2,4,9,19,21,25,28,30,32,34-undecaen-13-yl acetate] | 0.11 | 0.05 | 0.03 | 0.008 | 4.0 |  |  |  |  | 
5 | CO[C@H]1/C=C/O[C@@]2(C)Oc3c(C)c(O)c4c(=O)c(c5oc6cc(N7CCS(=O)(=O)CC7)cc(OCc7ccc(CN8CCOCC8)cc7)c6nc-5c4c3C2=O)NC(=O)/C(C)=C\C=C\[C@H](C)[C@H](O)[C@@H](C)[C@@H](O)[C@@H](C)[C@H](OC(C)=O)[C@@H]1C [Compound 17j, (7S,9E,11S,12R,13S,14R,15R,16R,17S,18S,19E,21Z)-30-(1,1-dioxothiomorpholin-4-yl)-2,15,17-trihydroxy-11-methoxy-3,7,12,14,16,18,22-heptamethyl-32-([4-(morpholin-4-ylmethyl)phenyl]methoxy)-6,23,37-trioxo-8,27,38-trioxa-24,34-diazahexacyclo-[23.11.1.1^4,7.0^5,36.0^26,35.0^28,33]octatriaconta-1,3,5(36)9,19,21,25,28,30,32,34-undecaen-13-yl acetate] |  | > 0.1 |  |  |  |  |  |  | > 0.02 | 
6 | CO[C@H]1/C=C/O[C@@]2(C)Oc3c(C)c(O)c4c(=O)c(c5oc6cccc(OCCCCN7CCN(C(=O)CN8CCOCC8)CC7)c6nc-5c4c3C2=O)NC(=O)/C(C)=C\C=C\[C@H](C)[C@H](O)[C@@H](C)[C@@H](O)[C@@H](C)[C@H](OC(C)=O)[C@@H]1C [Compound 5e, (7S,9E,11S,12R,13S,14R,15R,16R,17S,18S,19E,21Z)-2,15,17-Trihydroxy-11-methoxy-3,7,12,14,16,18,22-heptamethyl-32-(4-{4-[2-(morpholin-4-yl)acetyl]piperazin-1-yl}butoxy)-6,23,37-trioxo-8,27,38-trioxa-24,34-diazahexacyclo[23.11.1.1^4,7.0^5,36.0^26,35.0^28,33]octatriaconta-1(36)2,4,9,19,21,25,28(33)29,31,34-undecaen-13-yl acetate] | 0.09 | 0.04 | 0.27 |  | 0.57 |  |  |  | 0.047 | 
7 | CO[C@H]1/C=C/O[C@@]2(C)Oc3c(C)c(O)c4c(O)c(c(/C=N/N5CCN(C)CC5)c(O)c4c3C2=O)NC(=O)/C(C)=C\C=C\[C@H](C)[C@H](O)[C@@H](C)[C@@H](O)[C@@H](C)[C@H](OC(C)=O)[C@@H]1C [RMP, rifampin, reference compound] | 1 | 0.463 (≈ 0.381 µg/mL) |  | 0.206 (≈ 0.17 µg/mL) | 7.6 | 0.03 (≈ 0.0247 µg/mL) | 0.463 (≈ 0.381 µg/mL) |  |  | 1
8 | CO[C@H]1/C=C/O[C@@]2(C)Oc3c(C)c(O)c4c(=O)c(c5oc6cc(N7CCN(C(C)=O)CC7)cc(C)c6nc-5c4c3C2=O)NC(=O)/C(C)=C\C=C\[C@H](C)[C@H](O)[C@@H](C)[C@@H](O)[C@@H](C)[C@H](OC(C)=O)[C@@H]1C [Compound 26d, (7S,9E,11S,12R,13S,14R,15R,16R,17S,18S,19E,21Z)-30-(4-Acetylpiperazin-1-yl)-2,15,17-trihydroxy-11-methoxy-3,7,12,14,16,18,22,32-octamethyl-6,23,37-trioxo-8,27,38-trioxa-24,34-diazahexacyclo[23.11.1.1^4,7.0^5,36.0^26,35.0^28,33]octatriaconta-1(36)2,4,9,19,21,25,28,30,32,34-undecaen-13-yl acetate] |  | > 0.1 |  | > 0.02 |  |  |  |  |  | 
